Measurements published in US9513294B2, “Megastokes amino-triazolyl-BODIPY compounds and applications to live neuron staining and human serum albumin FA1 drug site probing” (National University of Singapore, priority 2012, dated 2016).
One block for each molecule: values may come before it.

Columns and labels:
[1] = Absorbance and fluorescence emission spectra (SpectraMax M2); format: physicochemical; settings: for λmax Absorp. (nm) / λmax Emission (nm): MKCA compound library; for λmax Absorp. (nm) / λmax Abs. (nm): absorbance maximum; for λmax Emission (nm) / λmax Em. (nm): fluorescence emission maximum; for λmax Abs. (nm) / λmax Em. (nm): MKAC compound library
Summary of the method: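 Absorbance and emission maxima measured on a SpectraMax M2 spectrophotometer, which also gave quantum yield data; analysis in GraphPrism.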

[2] = Quantum yield measurements versus Acridine Yellow in EtOH; format: physicochemical; settings: for φ (quantum yield): excitation 460 nm; for φ (%): quantum yield
Summary of the method: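 Fluorescence quantum yield is relative to Acridine Yellow in EtOH (Φ 0.47), with excitation at 460 nm. Integrated emission at 510–700 nm was corrected for absorbance at the excitation wavelength and for solvent refractive index.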

SMILES: CCCCc1cn(-c2ccc3n2[B-](F)(F)[N+]2=C(N4CCCCC4)C=CC2=C3c2ccc(N)cc2)nn1 [BDC-42]
- λmax Absorp. ([1]; BDC library, Table 2): 473 nm
- λmax Emission ([1]; BDC library, Table 2): 584 nm
- φ (quantum yield) ([2]; BDC library, Table 2): 0.19%

SMILES: O=C(CCl)Nc1ccc(C2=C3C=CC(NCc4cc(F)cc(F)c4)=[N+]3[B-](F)(F)n3c2ccc3-n2cc(CC3CCCCC3)nn2)cc1 [MKCA412-8]
- λmax Absorp. (nm) [1]: 467 nm
- λmax Emission (nm) [1]: 564 nm
- φ (%) ([2]; MKCA compound library): 36.92%

SMILES: CCCCCCc1cn(-c2ccc3n2[B-](F)(F)[N+]2=C(N4CCCCC4)C=CC2=C3c2ccc(NC(=O)CCl)cc2)nn1 [BDCCA-47]
- λmax Absorp. ([1]; BDCCA library, Table 4): 466 nm
- λmax Emission ([1]; BDCCA library, Table 4): 560 nm
- φ (quantum yield) ([2]; BDCCA library, Table 4): 1.8%

SMILES: CCCC(C)c1cn(-c2ccc3n2[B-](F)(F)[N+]2=C(N4CCc5ccccc5C4)C=CC2=C3c2ccc(NC(C)=O)cc2)nn1 (stereo not drawn) [MKAC66-3]
- λmax Abs. (nm) [1]: 469 nm
- λmax Em. (nm) [1]: 583 nm
- φ (%) ([2]; MKAC compound library): 2.40%

SMILES: CCCCc1cn(-c2ccc3n2[B-](F)(F)[N+]2=C(N4CCCCC4)C=CC2=C3c2ccc(NC(C)=O)cc2)nn1 [BDCAC-42]
- λmax Absorp. ([1]; BDCAC library, Table 3): 467 nm
- λmax Emission ([1]; BDCAC library, Table 3): 577 nm
- φ (quantum yield) ([2]; BDCAC library, Table 3): 1.3%

SMILES: CC(=O)Nc1ccc(C2=C3C=CC(N4CCc5ccccc5C4)=[N+]3[B-](F)(F)n3c2ccc3-n2cc(C3CC3)nn2)cc1 [MKAC66-4]
- λmax Abs. (nm) [1]: 469 nm
- λmax Em. (nm) [1]: 580 nm
- φ (%) ([2]; MKAC compound library): 2.56%

SMILES: CC(=O)Nc1ccc(C2=C3C=CC(NCc4ccccc4C)=[N+]3[B-](F)(F)n3c2ccc3-n2cc(CO)nn2)cc1 [MKAC101-70]
- λmax Abs. (nm) [1]: 465 nm
- λmax Em. (nm) [1]: 561 nm
- φ (%) ([2]; MKAC compound library): 18.11%

SMILES: Nc1ccc(C2=C3C=CC(N4CCCCC4)=[N+]3[B-](F)(F)n3c2ccc3-n2cc(C3CCCC3)nn2)cc1 [BDC-5]
- λmax Absorp. ([1]; BDC library, Table 2): 476 nm
- λmax Emission ([1]; BDC library, Table 2): 582 nm
- φ (quantum yield) ([2]; BDC library, Table 2): 0.16%

SMILES: CCCc1cn(-c2ccc3n2[B-](F)(F)[N+]2=C(N4CCCCC4)C=CC2=C3c2ccc(N)cc2)nn1 [BDC-48]
- λmax Absorp. ([1]; BDC library, Table 2): 476 nm
- λmax Emission ([1]; BDC library, Table 2): 582 nm
- φ (quantum yield) ([2]; BDC library, Table 2): 0.10%

SMILES: CCCCCC(O)c1cn(-c2ccc3n2[B-](F)(F)[N+]2=C(NCc4ccccc4C)C=CC2=C3c2ccc(N)cc2)nn1 (stereo not drawn) [MK101-69]
- λmax Absorp. ([1]; MK library, Table 5): 475 nm
- λmax Emission ([1]; MK library, Table 5): 563 nm
- φ (quantum yield) ([2]; MK library, Table 5): 2.40%

SMILES: O=C(CCl)Nc1ccc(C2=C3C=CC(N4CCCCC4)=[N+]3[B-](F)(F)n3c2ccc3-n2cc(-c3cccc(F)c3)nn2)cc1 [BDCCA-31]
- λmax Absorp. ([1]; BDCCA library, Table 4): 462 nm
- λmax Emission ([1]; BDCCA library, Table 4): 568 nm
- φ (quantum yield) ([2]; BDCCA library, Table 4): 1.0%

SMILES: CCOc1ccccc1CNC1=[N+]2C(=C(c3ccc(NC(=O)CCl)cc3)c3ccc(-n4cc(CCc5ccccc5)nn4)n3[B-]2(F)F)C=C1 [MKCA103-19]
- λmax Absorp. (nm) [1]: 464 nm
- λmax Emission (nm) [1]: 563 nm
- φ (%) ([2]; MKCA compound library): 36.82%

Second part, the molecule after the results:

- λmax Absorp. ([1]; BDCAC library, Table 3): 464 nm
- λmax Emission ([1]; BDCAC library, Table 3): 555 nm
- φ (quantum yield) ([2]; BDCAC library, Table 3): 2.1%
SMILES: COc1cccc(-c2cn(-c3ccc4n3[B-](F)(F)[N+]3=C(N5CCCCC5)C=CC3=C4c3ccc(NC(C)=O)cc3)nn2)c1 [BDCAC-27]

- λmax Absorp. ([1]; BDCCA library, Table 4): 466 nm
- λmax Emission ([1]; BDCCA library, Table 4): 583 nm
- φ (quantum yield) ([2]; BDCCA library, Table 4): 0.8%
SMILES: CC(C)Cc1cn(-c2ccc3n2[B-](F)(F)[N+]2=C(N4CCCCC4)C=CC2=C3c2ccc(NC(=O)CCl)cc2)nn1 [BDCCA-43]

- λmax Absorp. (nm) [1]: 463 nm
- λmax Emission (nm) [1]: 562 nm
- φ (%) ([2]; MKCA compound library): 33.37%
SMILES: Cc1ccccc1CNC1=[N+]2C(=C(c3ccc(NC(=O)CCl)cc3)c3ccc(-n4cc(CCc5ccccc5)nn4)n3[B-]2(F)F)C=C1 [MKCA101-19]

- λmax Absorp. ([1]; MK library, Table 5): 476 nm
- λmax Emission ([1]; MK library, Table 5): 567 nm
- φ (quantum yield) ([2]; MK library, Table 5): 0.68%
SMILES: Nc1ccc(C2=C3C=CC(NCc4cc(F)cc(F)c4)=[N+]3[B-](F)(F)n3c2ccc3-n2cc(C3CCCC3)nn2)cc1 [MK412-5]

- λmax Abs. (nm) [1]: 466 nm
- λmax Em. (nm) [1]: 583 nm
- φ (%) ([2]; MKAC compound library): 4.98%
SMILES: CC(=O)Nc1ccc(C2=C3C=CC(N4CC(C)OC(C)C4)=[N+]3[B-](F)(F)n3c2ccc3-n2cc(CC3CCCCC3)nn2)cc1 (stereo not drawn) [MKAC20-8]

- λmax Absorp. ([1]; BDCCA library, Table 4): 466 nm
- λmax Emission ([1]; BDCCA library, Table 4): 569 nm
- φ (quantum yield) ([2]; BDCCA library, Table 4): 1.4%
SMILES: CCCc1cn(-c2ccc3n2[B-](F)(F)[N+]2=C(N4CCCCC4)C=CC2=C3c2ccc(NC(=O)CCl)cc2)nn1 [BDCCA-48]

- λmax Absorp. ([1]; MK library, Table 5): 470 nm
- λmax Emission ([1]; MK library, Table 5): 580 nm
- φ (quantum yield) ([2]; MK library, Table 5): 0.33%
SMILES: CCCCCC(O)c1cn(-c2ccc3n2[B-](F)(F)[N+]2=C(N4CCCC4)C=CC2=C3c2ccc(N)cc2)nn1 (stereo not drawn) [MK215-69]

- λmax Absorp. ([1]; MK library, Table 5): 476 nm
- λmax Emission ([1]; MK library, Table 5): 584 nm
- φ (quantum yield) ([2]; MK library, Table 5): 0.32%
SMILES: CCCc1cn(-c2ccc3n2[B-](F)(F)[N+]2=C(N(C)Cc4ccccc4)C=CC2=C3c2ccc(N)cc2)nn1 [MK195-48]

- λmax Absorp. ([1]; BDC library, Table 2): 473 nm
- λmax Emission ([1]; BDC library, Table 2): 574 nm
- φ (quantum yield) ([2]; BDC library, Table 2): 0.16%
SMILES: CCCCCCc1cn(-c2ccc3n2[B-](F)(F)[N+]2=C(N4CCCCC4)C=CC2=C3c2ccc(N)cc2)nn1 [BDC-47]
